Test results: patent US20140234888A1, “Method for Improved Selection of Therapeutic Agents” (priority 2013, published 2014)

Columns and labels:
whole blood = assay: TDR-test in vitro, blood of patient G. (Example 1); format: cell-based, human; details: for reduction TDR: after 24 hours of incubation
blood cell fraction = assay: TDR-test in vitro, blood of patient B. (Example 2); format: cell-based, human; details: for reduction TDR: patient B. blood, after 24 hours of incubation
Experimental: Individual selection of anticancer chemotherapy was based on testing the dynamics of TDR in blood with cytostatics—Etoposide (in single therapeutic doses 80-100-120 mg/m2), Cisplatin (25-50-75-100 mg/m2), Carboplatin (150-300-450 mg/m2), Gemcitabine (800-1000-1200 mg/m2), Navelbine (25-30-35 mg/m2), Doxorubicin (20-30-40 mg/m2), Epidoxorubicin (50-70-90 mg/m2), Mitomycin C (4-6-8 mg/m2).

patient's blood = assay: TDR-test in vitro, blood of patient M. (Example 4); details: various doses, 1, 2 and 24 hours
Experimental: Therefore, we first proposed to take, in fact, it is a dynamic integrated assessment test “in vitro” level of nonspecific resistance to therapeutic agents during interaction with the blood of the patient. Selection of optimal treatments, their doses and combinations proposed to control the TDR dynamics within 24-72 hours, with some time intervals. The choice of temporary interval for determination the TDR dynamic is defined of main stage of the biochemical interaction of medicine (or non-drug therapeutic influence) with blood of the patient in vitro (phase 1—induction of biochemical reactions within the first 10-40 minutes, 2nd—for 1-3 hours, 3rd—within 24-72 hours). Therefore, TDR is expedient to record in intervals of precisely these three main stages of the induced signal transduction and protein synthesis (30-60 minutes, 2-3 hours, 24-72 hours after the start of testing).

[1] = system: microflora of the respiratory tract; assay: Sputum sample sensitivity to antibiotics (antibiotikogramma); format: cell-based; details: sputum sample of patient M.
[2] = system: Chronic obstructive bronchitis; assay: Treatment of patient M.; format: in vivo, human; details: endobronchial 250 mg followed by inductothermy 30 minutes, 1 treatment per day, 10 procedures, 2 weeks
Experimental: Based on the results of investigations the patient was assigned to a combination of antibiotic Cefazolin and inductothermy: endobronchial administration of Cefazolin 250 mg and immediately after this session inductothermy the projection of the large bronchi in the anterior-posterior direction with opposing fields of the two vehicles “Magniterm” for 30 minutes.

[3] = system: Chronic rhinitis of allergic origin, chronic bronchitis; assay: Treatment of patient F.; format: in vivo, human; details: before individual testing
Experimental: Diagnosis: “Chronic rhinitis of allergic origin, chronic bronchitis, allergic component in the acute stage.” In history: positive allergic reactions to penicillin antibiotics, the lack of reaction to tetracycline antibiotics. […] Doxycycline is used in doses of 100 mg and 200 mg on admission; when calculating the duration of induktothermy effect was adopted by the duration of the patient's blood sample for 2 seconds, which corresponds to the length of the actual procedure, 25-30 minutes.

## N.N.[Cl][Pt][Cl] [Cisplatin]
Whole blood; dose 75 mg/m2
  reduction TDR: 32%
Blood cell fraction; dose 100 mg/m2
  reduction TDR: 32%

## CC(=O)N[C@H]1[C@H](O[C@H]2[C@H](O[C@H](C)C(=O)N[C@@H](C)C(=O)N[C@H](CCC(=O)O)C(N)=O)[C@@H](NC(C)=O)C(O)O[C@@H]2CO)O[C@H](CO)[C@@H](O)[C@@H]1O (stereo partly drawn) [GMDP, glucosomuramyldipeptide]
Whole blood; 24 h incubation, dose 5 mg
  TDR increase compared to control: 64%
Blood cell fraction; patient B. blood cell fraction, after 1 hour of incubation, dose 50 mg
  increase in TDR compared with the control: 78%
Blood cell fraction; patient B. blood cell fraction, after 24 h of incubation, dose 10 mg
  increase in TDR: 228%

## CCC1=C[C@@H]2CN(C1)Cc1c([nH]c3ccccc13)[C@@](C(=O)OC)(c1cc3c(cc1OC)N(C)[C@H]1[C@@](O)(C(=O)OC)[C@H](OC(C)=O)[C@]4(CC)C=CCN5CC[C@]31[C@@H]54)C2 [Navelbine]
Blood cell fraction; dose 25 mg/m2
  reduction TDR: 20%

## Cc1nnc(SCC2=C(C(=O)O)N3C(=O)[C@@H](NC(=O)Cn4cnnn4)[C@H]3SC2)s1 [Cefazolin]
patient's blood
  change of TDR in blood samples during the incubation: progressive decrease
[1]
  sensitivity of the microflora to the antibiotic: highly sensitive
[2]
  clinical outcome: sustained remission of chronic bronchitis

## N.N.O=C([O-])C1(C(=O)[O-])CCC1.[Pt+2] [Carboplatin]
Whole blood; dose 450 mg/m2
  reduction TDR: 36%
Blood cell fraction; dose 350 mg/m2
  reduction TDR: 27%

## CC[C@H]1OC(=O)[C@H](C)[C@@H](O[C@H]2C[C@@](C)(OC)[C@@H](O)[C@H](C)O2)[C@H](C)[C@@H](O[C@@H]2O[C@H](C)C[C@H](N(C)C)[C@H]2O)[C@](C)(O)C[C@@H](C)C(=O)[C@H](C)[C@@H](O)[C@]1(C)O [Erythromycin]
[3]
  efficiency of conventional therapy: low efficiency

## COc1cc([C@@H]2c3cc4c(cc3[C@@H](O[C@@H]3O[C@@H]5CO[C@@H](C)O[C@H]5[C@H](O)[C@H]3O)[C@H]3COC(=O)[C@H]23)OCO4)cc(OC)c1O [Etoposide]
Blood cell fraction; dose 120 mg/m2
  reduction TDR: 21%

## CC(=O)O[C@H]1C(=O)[C@@]2(C)[C@H]([C@H](OC(=O)c3ccccc3)[C@]3(O)C[C@H](OC(=O)[C@H](O)[C@@H](NC(=O)c4ccccc4)c4ccccc4)C(C)=C1C3(C)C)[C@]1(OC(C)=O)CO[C@@H]1C[C@@H]2O [Paclitaxel]
Whole blood; dose 175 mg/m2
  reduction TDR: 28%
Blood cell fraction; dose 190 mg/m2
  reduction TDR: 25%

## Nc1ccn([C@@H]2O[C@H](CO)[C@@H](O)C2(F)F)c(=O)n1 [Gemcitabine]
Blood cell fraction; dose 1200 mg/m2
  reduction TDR: 30%

## CN1CCc2c(c3ccccc3n2Cc2ccccc2)C1 [Diazolin]
[3]
  efficiency of conventional therapy: low efficiency

## O=P1(N(CCCl)CCCl)NCCCO1 (stereo not drawn) [Cyclophosphamide]
Whole blood; dose 600 mg/m2
  reduction TDR: 30%
